In paper PMC10133194 (Chemistry (Weinheim an der Bergstrasse, Germany), 2023):
Where two headings read alike, the source gives them in different places.

Columns and labels:
[1] = target: T1, EPHA2 kinase domain (D596-G900) (Homo sapiens, UniProt P29317); assay: Microscale thermophoresis; format: binding; settings: read-out: KD MST, 25 °C, 5% DMSO, duplicates
T1 sequence (P29317 596-900): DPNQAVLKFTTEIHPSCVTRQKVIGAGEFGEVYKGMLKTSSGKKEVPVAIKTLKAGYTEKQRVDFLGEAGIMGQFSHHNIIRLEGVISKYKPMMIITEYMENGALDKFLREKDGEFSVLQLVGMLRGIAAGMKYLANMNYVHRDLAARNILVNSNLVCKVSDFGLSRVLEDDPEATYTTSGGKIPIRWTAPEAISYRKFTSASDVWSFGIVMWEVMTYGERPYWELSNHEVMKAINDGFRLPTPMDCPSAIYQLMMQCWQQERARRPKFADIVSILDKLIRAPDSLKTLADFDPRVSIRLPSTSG

[2] = test system: human colon carcinoma cells; settings: panel of cell lines; cited from earlier work
[3] = target: T1, EPHA2 kinase domain (D596-G900); settings: read-out: KD MST, reported previously ref 18; cited from earlier work
human CRC = settings: cited from earlier work

SMILES | Kd [1] [nM] | effect on proliferation of human colon carcinoma cells [2] | Kd [3] [nM] | effect on growth of human CRC in mice (human CRC)
Cc1ccc(NC(=O)c2cccc(C(F)(F)F)c2)cc1Nc1nc(-c2cccnc2)nc2c1cnn2C [Compound 7] | 10 | – | – | –
COc1cccc(NC(=O)c2ccc(C)c(Nc3nc(-c4cccnc4)nc4c3cnn4C)c2)c1 [Compound 14] | 2 | – | – | –
Cc1ccc(C(=O)Nc2cccc(C(F)(F)F)c2)cc1Nc1nc(-c2cccnc2)nc2c1cnn2C [NVP, NVP-BHG712] | – | reduce the proliferation | – | –
Cc1ccc(C(=O)Nc2cccc(C(F)(F)F)c2)cc1Nc1nc(-c2cccnc2)nc2nn(C)cc12 [NVPiso] | – | reduce the proliferation | 73 | inhibited the growth of human CRC in mice
